In paper PMC12040169 (PLOS Biology, 2025) one finds viability data, which are given here for 58 molecules.

This data set in a line: in vitro. The following applies: human, hela cells, % viability.
Regarding `COc1ccc(NC(=O)CSc2nnc(N)s2)cc1` [CBK058635], the viability (in general, a read-out of living cells in per cent, often relative to untreated cells) at 28.5 h, 10 µM is 104%.

For `O=C(Nc1nc2ccccc2s1)c1cnccn1` [CBK058664], the viability at 28.5 h, 10 µM amounted to 83.9%.

On to `O=C(Nc1ccccc1)c1onc2c1CCCC2` [CBK058703], for which the viability at 28.5 h, 10 µM worked out at 108%.

With `Cc1ccc(N(CC(=O)NCC2CCCO2)S(C)(=O)=O)cc1` (stereo not shown) [CBK058709], the viability at 28.5 h, 10 µM worked out at 88.1%.

`CCC(=O)NC(=S)Nc1cccc(NC(=O)c2cccc(Cl)c2)c1` [CBK058759]: the viability at 28.5 h, 10 µM turned out to be 93.6%.

For the molecule `COC(=O)C(CC(C)C)Nc1nc(OC)cc(OC)n1` (stereo not shown) [CBK058765], the viability at 28.5 h, 10 µM stood at 121%.

For the molecule `Cc1cc(C)cc(NC(=O)C2C3C4CCC(C4)C23)c1` (stereo not shown) [CBK058768], the viability at 28.5 h, 10 µM was 108%.

In the case of `Cn1nnnc1NC(=O)c1ccccc1F` [CBK058776], the viability at 28.5 h, 10 µM was 102%.

Regarding `CC(CNCC1CCCO1)COc1cccc(Cl)c1` (stereo not shown) [CBK058789], the viability at 28.5 h, 10 µM was 96%.

In the case of `O=[N+]([O-])c1ccccc1S(=O)(=O)NCCSCc1ccc(Cl)c(Cl)c1` [CBK058810], the viability at 28.5 h, 10 µM was 104%.

Turning to `CCOc1ccccc1NC(C)CC(=O)O` (stereo not shown) [CBK058826], the viability at 28.5 h, 10 µM is 82.8%.

Consider `CCOC(=O)c1sc(NC(=O)C2CCCO2)c(C(N)=O)c1C` (stereo not shown) [CBK058830], for which the viability at 28.5 h, 10 µM turned out to be 91.3%.

Consider `Cc1cc(C)nc(NC(=O)C2C3C=CC(C3)C2C(=O)O)c1` (stereo not shown) [CBK058843], for which the viability at 28.5 h, 10 µM came out at 104%.

Regarding `O=C(c1ccc(COc2ccc(I)cc2)cc1)N1CCCCCC1` [CBK058852], the viability at 28.5 h, 10 µM turned out to be 83.4%.

For the molecule `O=C(O)C1C2C=CC(O2)C1C(=O)NCc1ccccn1` (stereo not shown) [CBK058859], the viability at 28.5 h, 10 µM was determined as 99.1%.

Consider `CC1=NN(C(=O)c2c(Cl)c(C)nn2C)C(O)(C(F)(F)F)C1` (stereo not shown) [CBK058892], for which the viability at 28.5 h, 10 µM was determined as 117%.

For `CC1=NN(C(=O)c2ccc(Cl)cc2)C(C)(C)C1` [CBK058904], the viability at 28.5 h, 10 µM amounted to 111%.

As for `O=C(NC1=NCCS1)c1cc2ccccc2o1` [CBK058927], the viability at 28.5 h, 10 µM is 80.8%.

Regarding `O=C(Cc1cccc(F)c1)N1CCOCC1` [CBK058928], the viability at 28.5 h, 10 µM was 83.9%.

With `CCOC(=O)COc1ccc(C#N)cc1OCC` [CBK058937], the viability at 28.5 h, 10 µM came out at 103%.

Regarding `Cc1ccc(CNC(=O)CCC(=O)O)cc1` [CBK058951], the viability at 28.5 h, 10 µM turned out to be 120%.

Take `O=S(=O)(Cc1ccc(Cl)cc1Cl)N1CCOCC1` [CBK058967]: the viability at 28.5 h, 10 µM was 78.1%.

In the case of `CCC(NC(=O)c1csc2c1CCCC2)c1ccccc1` (stereo not shown) [CBK059006], the viability at 28.5 h, 10 µM was 108%.

Consider `O=C(NC1CCCCCC1)c1ccc(COCC(F)(F)C(F)F)cc1` [CBK059012], for which the viability at 28.5 h, 10 µM was 114%.

Regarding `Cc1cc(Cl)ccc1OCCCC(=O)N1CCc2ccccc21` [CBK059016], the viability at 28.5 h, 10 µM is 97.8%.

Turning to `CN(C)CCNC1CS(=O)(=O)CC1O` (stereo not shown) [CBK059025], the viability at 28.5 h, 10 µM came out at 84.8%.

As to `CN(C)CCN(C)S(=O)(=O)c1ccc(C(C)(C)C)cc1` [CBK059035T], the viability at 28.5 h, 10 µM was found to be 94.7%.

As for `CN1CCC(N(C)S(=O)(=O)c2ccc(C(C)(C)C)cc2)C1` (stereo not shown) [CBK059036T], the viability at 28.5 h, 10 µM came out at 98.5%.

In the case of `O=S(=O)(c1ccc(F)c(Cl)c1)n1ccc2c(N3CCNCC3)nccc21` [CBK059059C], the viability at 28.5 h, 10 µM stood at 90.7%.

Turning to `O=S(=O)(c1c(Cl)cccc1Cl)n1ccc2c(N3CCNCC3)nccc21` [CBK059060C], the viability at 28.5 h, 10 µM stood at 91.4%.

Take `O=S(=O)(c1ccc(F)cc1F)n1ccc2c(N3CCNCC3)nccc21` [CBK059061C]: the viability at 28.5 h, 10 µM was 89.7%.

Regarding `COc1ccc(OC)c(S(=O)(=O)n2ccc3c(N4CCNCC4)nccc32)c1` [CBK059067C], the viability at 28.5 h, 10 µM was determined as 101%.

With `Cc1ccc([N+](=O)[O-])cc1S(=O)(=O)n1ccc2c(N3CCNCC3)nccc21` [CBK059068C], the viability at 28.5 h, 10 µM was 96.5%.

As to `Cc1cc(F)c(S(=O)(=O)NCCN2CCOCC2)cc1NC(=O)c1ccc(Br)o1` [CBK059091C], the viability at 28.5 h, 10 µM was found to be 89.7%.

As for `O=C(O)CC1SC(Nc2cc(C(F)(F)F)cc(C(F)(F)F)c2)=NC1=O` (stereo not shown) [CBK059095], the viability at 28.5 h, 10 µM came out at 89.8%.

Regarding `O=C(O)CC1SC(Nc2ccccc2F)=NC1=O` (stereo not shown) [CBK059096], the viability at 28.5 h, 10 µM amounted to 94.9%.

Regarding `CCNC(=S)N1CC[C@@H]2N(C)CC[C@]2(c2ccc(OC)c(OC)c2)CC1` [CBK059113T], the viability at 28.5 h, 10 µM was 88.5%.

As for `COc1ccc2c(c1)C(C)CC(C)(C)N2C(=O)CSc1nnc(-c2ccco2)n1C` (stereo not shown) [CBK059169], the viability at 28.5 h, 10 µM came to 102%.

On to `C=CCn1c(SCC(=O)N2c3ccccc3C(C)(c3ccccc3)CC2(C)C)nnc1-c1ccncc1` (stereo not shown) [CBK059171], for which the viability at 28.5 h, 10 µM worked out at 83.3%.

With `CCCn1c(SCC(=O)N2c3ccc(F)cc3CCC2C)nnc1-c1cccnc1` (stereo not shown) [CBK059187], the viability at 28.5 h, 10 µM worked out at 94%.

As for `CS(=O)(=O)Nc1ccc(N2CCNCC2)c2ccccc12` [CBK059355C], the viability at 28.5 h, 10 µM is 79.3%.

`O=C([C@@H]1Cc2c([nH]c3ccccc23)C2(CCN(Cc3ccccc3)C2)N1)N1CCOCC1` (stereo partly shown) [CBK059363T]: the viability at 28.5 h, 10 µM was found to be 97.3%.

Turning to `Cc1cc(F)c(S(N)(=O)=O)cc1NC(=O)c1ccc(CN2CCOCC2)o1` [CBK059376C], the viability at 28.5 h, 10 µM was 97.7%.

`CCS(=O)(=O)Nc1cc(N2CCNCC2)c2occc2c1` [CBK059429C]: the viability at 28.5 h, 10 µM was 118%.

On to `CCc1cccc(CC)c1NC(=O)CC1SC(NCc2ccc(C)cc2)=NC1=O` (stereo not shown) [CBK059431], for which the viability at 28.5 h, 10 µM was determined as 118%.

As for `O=C(Cc1ccc(Cl)cc1)N1CCc2c([nH]c3ccccc23)C12CCN(Cc1ccc(F)cc1)C2` (stereo not shown) [CBK059453], the viability at 28.5 h, 10 µM came out at 90.6%.

For `CC(C)CC(=O)N1CCc2c([nH]c3ccccc23)C12CCN(Cc1ccccc1)C2` (stereo not shown) [CBK059459], the viability at 28.5 h, 10 µM amounted to 81.6%.

For the molecule `CS(=O)(=O)N1CCc2c([nH]c3ccccc23)C12CCN(Cc1ccccc1)C2` (stereo not shown) [CBK059460], the viability at 28.5 h, 10 µM worked out at 102%.

Regarding `COc1cc(NC(=O)CC2SC(NC3CCCCC3)=NC2=O)c(OC)cc1Cl` (stereo not shown) [CBK059497], the viability at 28.5 h, 10 µM was found to be 96.2%.

Regarding `Cc1ccc(NC(=O)CC2SC(NC3CCCCC3)=NC2=O)c(C)c1` (stereo not shown) [CBK059500], the viability at 28.5 h, 10 µM was found to be 87.9%.

With `O=C(CC1SC(NC2CCCCC2)=NC1=O)Nc1cc(Cl)ccc1Cl` (stereo not shown) [CBK059501], the viability at 28.5 h, 10 µM was determined as 91%.

Consider `C[C@@H]1[C@H]2C[C@@H](C[C@H]1NC1=NC(=O)C(CC(=O)O)S1)C2(C)C` (stereo partly shown) [CBK059514], for which the viability at 28.5 h, 10 µM was determined as 93.8%.

Regarding `COc1ccc(N(C)C(=O)c2ccc(Cn3nc(NC(=O)Cc4ccc5c(c4)OCO5)c4ccccc43)cc2)cc1` [CBK059530], the viability at 28.5 h, 10 µM worked out at 103%.

For `Cc1ccnc2c1C(=O)C1(CC2)CCN(C(=O)Nc2ccc(F)cc2F)CC1` [CBK059553T], the viability at 28.5 h, 10 µM is 91.3%.

As to `O=C(NC(c1ccc(Cl)cc1)c1cnccn1)C1CCN(C(=O)c2ccccc2)CC1` (stereo not shown) [CBK059634], the viability at 28.5 h, 10 µM worked out at 109%.

Take `COc1ccccc1C(NC(=O)C1CCN(C(=O)c2cccc(Cl)c2)CC1)c1ccccn1` (stereo not shown) [CBK059637]: the viability at 28.5 h, 10 µM is 90.3%.

As for `CC(C)OC(=O)N1CCC(C(=O)NC(c2ccccc2)c2ccc3ccccc3n2)CC1` (stereo not shown) [CBK059642], the viability at 28.5 h, 10 µM was found to be 106%.

With `COc1cc(OC)nc(C(NC(=O)C2CCN(C(=O)c3ccccc3)CC2)c2ccccc2)n1` (stereo not shown) [CBK059650], the viability at 28.5 h, 10 µM worked out at 99.7%.
